This note sets out measurements from ChEMBL document CHEMBL1201862, “PubChem BioAssay data set” (2004).

Structures can show the parent of a compound that is named as a salt.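 How tested: cells in 96-well plates exposed to compound for 48 hours at five concentrations. Abbreviation: GI50, concentration required for 50% inhibition of growth.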 The source made the active and inactive calls. No stated cut-off is given here; in the data, active = GI50 up to about 1.1 µM and inactive = higher. Where only a bound is given, the exact number is not on record here.

Test systems include A498; HCT-116; HCT-15; HL-60; HOP-62; M14; MCF7; MDA-MB-435; MOLT-4; Malme-3M; NCI-H460; SF-268; SK-MEL-28; SK-MEL-5; SK-OV-3; SNB-19; SNB-75; SR; T47D; BT-549.
Holding throughout (test): NCI anticancer screen, dose series, 48 h

On to `CCOC(=O)C(NC(C)=O)(Nc1ccc(S(N)(=O)=O)cc1)C(F)(F)F` (stereo not given), for which the GI50 with A498 is > 100 µM (inactive); in the experiment with HCT-116, > 100 µM (inactive); in the experiment on HCT-15, above 100 µM; in the experiment on HL-60 it was > 100 µM (inactive); in the experiment on HOP-62 it was > 100 µM (inactive); with M14 it was > 100 µM (inactive). For the same compound, the GI50 with MCF7, in the experiment on MDA-MB-435, with MOLT-4, in the experiment with Malme-3M, with NCI-H460 and in the experiment with SF-268 was > 100 µM (inactive) throughout. Also, the GI50 in the experiment on SK-MEL-28, in the experiment on SK-MEL-5, with SK-OV-3, in the experiment with SNB-19, in the experiment with SNB-75 and with SR was > 100 µM (inactive) throughout. The GI50 with T47D is > 100 µM (inactive).
As for `OC1(c2ccccc2)CCCCCCCCC(O)(c2ccccc2)CCCCCCCC1` (stereo not given), the GI50 in the experiment on A498 is > 100 µM (inactive); with HCT-116 it was > 100 µM (inactive); with HCT-15, above 100 µM; with HL-60 it was 59.2 µM (inactive); in the experiment with HOP-62, > 100 µM (inactive); in the experiment with M14, > 100 µM (inactive). For the same compound, the GI50 in the experiment on MCF7, with MDA-MB-435, with Malme-3M, in the experiment with NCI-H460, with SF-268 and with SK-MEL-28 was > 100 µM (inactive) each time. Moreover, the GI50 with SK-MEL-5, in the experiment on SK-OV-3, in the experiment on SNB-19, in the experiment on SNB-75, in the experiment on SR and in the experiment with T47D was > 100 µM (inactive) each time.
`O=c1cc(-c2ccccc2F)[nH]c2ccc(N3CCCC3)cc12`: the GI50 was 0.0215 µM (active) in the experiment on A498; 0.033 µM in the experiment with HCT-15; > 100 µM (inactive) with HL-60; 0.34 µM (active) in the experiment on HOP-62; 0.0301 µM (active) in the experiment with M14; 0.00745 µM (active) in the experiment with MCF7. Also, the GI50 with MDA-MB-435 was < 0.001 µM (active); with MOLT-4, 0.078 µM (active); with Malme-3M it was > 100 µM (inactive); in the experiment on NCI-H460 it was 0.0417 µM (active); in the experiment with SF-268, 0.0363 µM (active); in the experiment with SK-MEL-28, 0.465 µM (active). Also, the GI50 was 0.0419 µM (active) in the experiment on SK-MEL-5; > 100 µM (inactive) with SK-OV-3; 0.0214 µM (active) with SNB-19; 63.2 µM (inactive) in the experiment on SNB-75; 0.498 µM (active) in the experiment with SR; > 10 µM (inactive) in the experiment with T47D.
`COCCOCN(C(=O)C1=CCC2(CC1)OCCO2)c1ccccc1I`: the GI50 in the experiment on A498 was > 50 µM (inactive); with HCT-116, > 50 µM (inactive); in the experiment with HCT-15 it was above 50 µM; with HOP-62, > 50 µM (inactive); in the experiment on M14 it was > 50 µM (inactive); in the experiment on MCF7 it was > 50 µM (inactive). The GI50 in the experiment on MDA-MB-435, with MOLT-4, in the experiment with NCI-H460, with SK-MEL-28, in the experiment with SK-MEL-5 and with SK-OV-3 was > 50 µM (inactive) each time. Moreover, the GI50 in the experiment with SNB-19, in the experiment on SNB-75, in the experiment with SR and in the experiment with T47D was > 50 µM (inactive) each time.
On to `CCOC(CN(C)C(=O)Nc1ccc(Cl)c(Cl)c1)OCC`, for which the GI50 with A498 was > 10 µM (inactive); with HCT-116, > 10 µM (inactive); in the experiment with HCT-15 it was above 10 µM; in the experiment on HL-60 it was > 10 µM (inactive); with HOP-62, > 10 µM (inactive); in the experiment on M14 it was > 10 µM (inactive). Further, the GI50 with MCF7, in the experiment on MDA-MB-435, in the experiment with MOLT-4, with Malme-3M, in the experiment with NCI-H460 and in the experiment with SF-268 was > 10 µM (inactive) in each case. Further, the GI50 with SK-MEL-28, in the experiment on SK-MEL-5, in the experiment with SK-OV-3, in the experiment with SNB-19, with SNB-75 and in the experiment on SR was > 10 µM (inactive) throughout. Also, the GI50 in the experiment with T47D was > 10 µM (inactive).
For the compound `C=C1c2nc3ccccc3n2C=C(c2ccccc2)N1c1ccccc1`, the GI50 with A498 was 65.3 µM (inactive); in the experiment on BT-549, 24.5 µM (inactive); with HCT-116, 13.5 µM (inactive); in the experiment with HCT-15, 13.6 µM; with HL-60, 58.7 µM (inactive); in the experiment with M14, 67.9 µM (inactive). Also, the GI50 with MCF7 is 14.6 µM (inactive); in the experiment on MDA-MB-435, 40.5 µM (inactive); in the experiment on MOLT-4, 21.4 µM (inactive); with Malme-3M, > 100 µM (inactive); in the experiment on NCI-H460 it was 27.5 µM (inactive); with SK-MEL-5 it was 17.1 µM (inactive). Further, the GI50 in the experiment on SK-OV-3 is > 100 µM (inactive); in the experiment with SNB-19, 40.4 µM (inactive); in the experiment on SNB-75 it was > 100 µM (inactive); in the experiment with SR, 21.7 µM (inactive).
For `CC(CN1c2ccccc2Sc2ccccc21)N(C)C` (stereo not given) [PROMETHAZINE HYDROCHLORIDE], the GI50 with A498 was 19.6 µM (inactive); in the experiment with HCT-116, 15.5 µM (inactive); in the experiment with HCT-15, 17.5 µM; in the experiment on HL-60, 22.7 µM (inactive); in the experiment on HOP-62 it was 15.2 µM (inactive); in the experiment on M14, 17.3 µM (inactive). Also, the GI50 was 25.8 µM (inactive) in the experiment with MCF7; 16.9 µM (inactive) in the experiment with MDA-MB-435; 19.8 µM (inactive) in the experiment with MOLT-4; 18.9 µM (inactive) in the experiment with Malme-3M; 17.9 µM (inactive) in the experiment with NCI-H460; 17.5 µM (inactive) with SF-268. The GI50 with SK-MEL-28 is 17.8 µM (inactive); in the experiment with SK-MEL-5, 21.1 µM (inactive); in the experiment on SK-OV-3 it was 18.3 µM (inactive); in the experiment with SNB-19, 17.4 µM (inactive); in the experiment on SNB-75, 3.78 µM (inactive); in the experiment with SR, 21.8 µM (inactive). The GI50 in the experiment on T47D is 21.5 µM (inactive).
As to `C/C(=C\[Si](C)(C)c1ccco1)C(C)(O)[C@H](C)O` (stereo not given in full), the GI50 is 76 µM (inactive) in the experiment on A498; 41.6 µM (inactive) with HCT-116; 31.6 µM in the experiment on HCT-15; 26.9 µM (inactive) in the experiment with HL-60; > 100 µM (inactive) in the experiment on HOP-62; > 100 µM (inactive) in the experiment with M14. In addition, the GI50 was 32.9 µM (inactive) with MCF7; 45.3 µM (inactive) in the experiment on MDA-MB-435; 33.4 µM (inactive) with MOLT-4; 52.8 µM (inactive) in the experiment with Malme-3M; 47.5 µM (inactive) with NCI-H460; 90.2 µM (inactive) with SF-268. Also, the GI50 in the experiment with SK-MEL-28 is > 100 µM (inactive); in the experiment with SK-MEL-5, 40.7 µM (inactive); with SK-OV-3 it was > 100 µM (inactive); with SNB-19, > 100 µM (inactive); in the experiment on SR it was 33.8 µM (inactive); with T47D, 16.4 µM (inactive).
For the compound `O=C1O/C(=C/c2ccccc2)C(c2ccccc2)=C1O`, the GI50 was 23.1 µM (inactive) with A498; 36.9 µM (inactive) in the experiment on HCT-116; 34.4 µM with HCT-15; 20.1 µM (inactive) in the experiment on HL-60; 29.4 µM (inactive) with HOP-62; 59.8 µM (inactive) with M14. Further, the GI50 in the experiment on MCF7 is 34.4 µM (inactive); in the experiment on MDA-MB-435 it was 29.8 µM (inactive); with MOLT-4 it was 53.3 µM (inactive); in the experiment on Malme-3M, 60.7 µM (inactive); with SK-MEL-28, 35.5 µM (inactive); in the experiment on SK-MEL-5 it was 34.4 µM (inactive). The GI50 with SK-OV-3 is 61.9 µM (inactive); in the experiment on SNB-19, 47.5 µM (inactive); in the experiment on SNB-75, 67.3 µM (inactive); in the experiment on T47D it was 27.2 µM (inactive).
With `CC(NC(=O)C(N)CC(=O)O)NC(=O)N1CCOCC1` (stereo not given), the GI50 with A498 is > 100 µM (inactive); in the experiment with BT-549, > 100 µM (inactive); in the experiment on HCT-116, > 100 µM (inactive); in the experiment with HCT-15, above 100 µM; in the experiment on HOP-62, > 100 µM (inactive); in the experiment on M14 it was > 100 µM (inactive). Moreover, the GI50 with MCF7, in the experiment with MDA-MB-435, with MOLT-4, in the experiment with Malme-3M, in the experiment with NCI-H460 and with SF-268 was > 100 µM (inactive) throughout. In addition, the GI50 in the experiment with SK-MEL-28, in the experiment with SK-MEL-5, in the experiment on SK-OV-3, in the experiment on SNB-19 and in the experiment on SNB-75 was > 100 µM (inactive) in each case.
Take `CC1OCC2OC(C)OC(C3C4=C(CC(C)(C)CC4=O)OC4=C3C(=O)CC(C)(C)C4)C2O1` (stereo not given): the GI50 in the experiment with A498 was > 100 µM (inactive); in the experiment on HCT-116, > 100 µM (inactive); in the experiment on HCT-15, above 100 µM; in the experiment on HL-60 it was > 100 µM (inactive); in the experiment on HOP-62, > 100 µM (inactive); in the experiment on M14, > 100 µM (inactive). The GI50 in the experiment with MCF7, with MDA-MB-435, in the experiment on MOLT-4, with Malme-3M, with NCI-H460 and in the experiment with SF-268 was > 100 µM (inactive) throughout. Besides, the GI50 with SK-MEL-28, with SK-MEL-5, in the experiment with SK-OV-3, in the experiment with SNB-19, in the experiment on SNB-75 and in the experiment with SR was > 100 µM (inactive) throughout. Besides, in the experiment with T47D, the GI50 is > 100 µM (inactive).
